What follows are molecules tested against T1, Recombinant human JARID1B/KDM5B (Homo sapiens, UniProt Q9UGL1) (assay: LANCE Ultra TR-FRET demethylase assay with FLAG-tagged JARID1B). Details: 100 nM compound; 500 nM biotinylated H3K4me3 peptide substrate.
T1 construct: purchased Active Motif 31432; host or cells: Sf9 insect cells
Format: biochemical
Text: FLAG-tagged JARID1B (also known as KDM5B) protein was screened against more than 170 compounds. For this compound screening, LANCE Ultra time-resolved fluorescence resonance energy transfer (TR-FRET) assay was employed using an europoium (Eu)-labeled antibody that can specifically recognize mono- or dimethylated peptides (H3K4me2/1) and ULight-streptavidin (ULight-SA), a small molecule fluorescent dye. When irradiated at 340 nm, the energy from the Eu donor is transferred to the ULight acceptor dye which, in turn, emits light primarily at 665 nm. The ratio between the intensity of primary emission at 665 nm and that of secondary emission at 590 nm was used to quantify the level of lysine methylation. As JARID1B removes more methyl moieties from tri-methylated substrate peptides (H3K4me3), the ratio increases until the enzyme reaction is terminated. In case, therefore, the compounds disrupt the enzymatic activity completely, the ratio becomes equal to a background value.
Recombinant human JARID1B/KDM5B (accession number NP_006609) of molecular weight 179.9 KDa was expressed in Sf9 insect cells and contains an N-terminal FLAG tag. The enzyme was obtained from Active Motif (Catalog No. 31432). The tri-methylated histone substrate peptide of purity greater than 95% was a synthetic peptide in which the first 21 amino acids correspond to the human histone H3 sequence with three extra amino acids and a biotin motif (GGK-biotin) linked to the C-terminus [sequence: ART-K (Me3)-QTARKSTGGKAPRKQLA-GGK-biotin-OH], (AnaSpec, Fremont, Calif. Catalog. No. ANA-1413). The reference inhibitory compound tranylcypromine (or trans-2-phenylcyclopropylamine hydrochloride, also known as, 2-PCPA) was purchased from Sigma (St. Louis, Mo. Cat. no. P8511). ULight-labeled streptavidin (ULight-SA, Catalog no. TRF0102), Eu-W1024-labeled anti-methyl-Histone H3 Lysine 4 (H3K4me1-2) Antibody (Catalog no. TRF0402), and LANCE detection buffer 10× (Catalog no. CR97-100) were obtained from PerkinElmer (Montreal, Quebec, Canada). The TR-FRET experiments were carried out in white, low-volume 384-wellplates purchased from PerkinElmer (ProxiPlate-384 Plus, Catalog no. 6008280).
The TR-FRET signal was measured in the presence both of the bio-H3K4me3 peptide and FLAG-JARID1B by detecting any H3K4me2/1 peptide produced in the assay system. Assays using only the bio-H3K4me2 peptide were served as a positive control. Robust enzymatic progressions were observed by using JARID1B at concentrations ranging from 10 to 30 nM. In a typical TR-FRET experiment, JARID1B was pre-incubated with or without 20 uM, 1 uM, or 0.1 uM of test-compounds (containing 1% DMSO final) for […]. The enzymatic reactions were initiated by the addition of 500 nM biotinylated H3K4me3 peptide substrate plus 500 uM of 2-OG, 25 uM Fe(II) and 2 mM ascorbate. The reaction buffer also contained 50 mM Hepes (pH7.5), 0.01% (v/v) Tween 20, and 50 mM NaCl. The reaction mixture was incubated for […] at room temperature before reading on an EnVision plate reader (PerkinElmer, Waltham, Mass.).

T1 sequence (Q9UGL1 whole entry): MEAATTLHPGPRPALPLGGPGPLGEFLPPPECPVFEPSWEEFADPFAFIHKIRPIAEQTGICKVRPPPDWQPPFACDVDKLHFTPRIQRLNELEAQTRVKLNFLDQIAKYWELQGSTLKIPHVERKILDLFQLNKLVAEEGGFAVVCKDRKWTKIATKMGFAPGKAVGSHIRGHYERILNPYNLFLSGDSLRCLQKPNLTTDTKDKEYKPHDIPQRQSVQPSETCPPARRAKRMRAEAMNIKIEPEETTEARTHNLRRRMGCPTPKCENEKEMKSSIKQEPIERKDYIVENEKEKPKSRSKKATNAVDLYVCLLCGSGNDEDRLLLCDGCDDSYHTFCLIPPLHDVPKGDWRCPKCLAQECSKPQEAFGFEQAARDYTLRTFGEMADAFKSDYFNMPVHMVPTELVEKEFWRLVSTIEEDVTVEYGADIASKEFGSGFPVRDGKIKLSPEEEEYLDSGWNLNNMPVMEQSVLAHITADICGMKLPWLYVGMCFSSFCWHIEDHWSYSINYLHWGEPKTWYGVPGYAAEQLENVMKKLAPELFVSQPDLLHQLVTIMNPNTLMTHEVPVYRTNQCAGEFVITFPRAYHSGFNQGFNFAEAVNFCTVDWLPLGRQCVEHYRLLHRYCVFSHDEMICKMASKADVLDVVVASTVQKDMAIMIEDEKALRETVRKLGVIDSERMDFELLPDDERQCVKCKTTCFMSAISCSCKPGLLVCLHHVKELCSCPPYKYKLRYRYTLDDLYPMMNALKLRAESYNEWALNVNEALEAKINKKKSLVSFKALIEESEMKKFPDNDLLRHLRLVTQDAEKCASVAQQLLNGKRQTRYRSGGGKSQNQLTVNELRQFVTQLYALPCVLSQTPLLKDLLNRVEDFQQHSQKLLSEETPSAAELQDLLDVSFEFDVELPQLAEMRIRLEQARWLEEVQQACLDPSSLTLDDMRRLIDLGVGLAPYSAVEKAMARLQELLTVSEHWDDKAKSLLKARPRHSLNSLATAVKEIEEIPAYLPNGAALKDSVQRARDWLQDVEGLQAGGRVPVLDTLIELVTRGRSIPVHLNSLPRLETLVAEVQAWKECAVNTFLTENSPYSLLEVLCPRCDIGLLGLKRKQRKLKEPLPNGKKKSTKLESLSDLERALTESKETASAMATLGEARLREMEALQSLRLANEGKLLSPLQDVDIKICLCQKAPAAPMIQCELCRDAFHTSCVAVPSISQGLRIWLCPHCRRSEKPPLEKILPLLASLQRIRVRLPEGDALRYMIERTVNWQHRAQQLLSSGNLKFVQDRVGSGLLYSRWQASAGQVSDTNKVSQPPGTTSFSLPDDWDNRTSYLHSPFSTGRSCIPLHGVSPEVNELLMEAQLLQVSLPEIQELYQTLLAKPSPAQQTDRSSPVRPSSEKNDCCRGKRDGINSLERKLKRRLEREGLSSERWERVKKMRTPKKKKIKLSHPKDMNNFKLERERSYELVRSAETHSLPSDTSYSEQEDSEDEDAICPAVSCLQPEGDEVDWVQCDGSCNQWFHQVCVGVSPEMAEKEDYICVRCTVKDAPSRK

SMILES	inhibition at 0.1 µM [%]
CCN1CCC[C@@H]1CNCc1nccc2c(=O)[nH]c(COc3ccc(Cc4ccccc4)cc3)nc12 [Example 145, (R)-2-((4-benzylphenoxy)methyl)-8-((((1-ethylpyrrolidin-2-yl)methyl)amino)methyl)pyrido[3,4-d]pyrimidin-4(3H)-one]	20 to 50
CN1CCC(CNCc2nccc3c(=O)[nH]c(COCc4ccccc4Cl)nc23)CC1 [Example 210, 2-(((2-chlorobenzyl)oxy)methyl)-8-((((1-methylpiperidin-4-yl)methyl)amino)methyl)pyrido[3,4-d]pyrimidin-4(3H)-one]	> 50
Cc1cccc(OCc2nc3c(CNCC4CCNCC4)nccc3c(=O)[nH]2)c1 [Example 119, 8-(((piperidin-4-ylmethyl)amino)methyl)-2-((m-tolyloxy)methyl)pyrido[3,4-d]pyrimidin-4(3H)-one]	20 to 50
O=c1[nH]c(COc2ccc(Cc3ccccc3)cc2)nc2c(CNCC3CNC3)nccc12 [Example 147, 8-(((azetidin-3-ylmethyl)amino)methyl)-2-((4-benzylphenoxy)methyl)pyrido[3,4-d]pyrimidin-4(3H)-one]	> 50
CC(NCc1nccc2c(=O)[nH]cnc12)C1CCNCC1 (stereo not drawn) [Example 94, 8-(((1-(piperidin-4-yl)ethyl)amino)methyl)pyrido[3,4-c]pyrimidin-4(3H)-one]	< 20
CN(C)C1CCN(C(=O)CNCc2nccc3c(=O)[nH]c(COc4ccc(F)c(Cl)c4)nc23)C1 (stereo not drawn) [Example 237, 2-((3-chloro-4-fluorophenoxy)methyl)-8-(((2-(3-(dimethylamino)pyrrolidin-1-yl)-2-oxoethyl)amino)methyl)pyrido[3,4-d]pyrimidin-4(3H)-one]	> 50
O=C(CC1CCNCC1)NCc1nccc2c(=O)[nH]c(COc3ccc(F)c(Cl)c3)nc12 [Example 240, N-((2-((3-chloro-4-fluorophenoxy)methyl)-4-oxo-3,4-dihydropyrido[3,4-d]pyrimidin-8-yl)methyl)-2-(piperidin-4-yl)acetamide]	< 20
O=C(NCCN1CCOCC1)c1cccc(OCc2nc3cnccc3c(=O)[nH]2)c1 [Example 40, N-(2-morpholinoethyl)-3-((4-oxo-3,4-dihydropyrido[3,4-d]pyrimidin-2-yl)methoxy)benzamide]	< 20
O=c1[nH]c(COc2cccc(CNC3CCOCC3)c2)nc2cnccc12 [Example 44, 2-((3-(((tetrahydro-2H-pyran-4-yl)amino)methyl)phenoxy)methyl)pyrido[3,4-d]pyrimidin-4(3H)-one]	< 20
O=c1[nH]c(COc2ccc3c(c2)CCC3)nc2c(CNCC3CCNCC3)nccc12 [Example 139, 2-(((2,3-dihydro-1H-inden-5-yl)oxy)methyl)-8-(((piperidin-4-ylmethyl)amino)methyl)pyrido[3,4-d]pyrimidin-4(3H)-one]	20 to 50
O=c1[nH]cnc2c(CNCC3CCCCC3)nccc12 [Example 85, 8-(((cyclohexylmethyl)amino)methyl)pyrido[3,4-d]pyrimidin-4(3H)-one]	< 20
O=c1[nH]c(COc2ccc(F)c(Cl)c2)nc2c(CNCCN3CCOCC3)nccc12 [Example 164, 2-((3-chloro-4-fluorophenoxy)methyl)-8-(((2-morpholinoethyl)amino)methyl)pyrido[3,4-d]pyrimidin-4(3H)-one]	20 to 50
O=c1[nH]c(C2CCOC2)nc2c(CNCC3CCNCC3)nccc12 (stereo not drawn) [Example 195, 8-(((piperidin-4-ylmethyl)amino)methyl)-2-(tetrahydrofuran-3-yl)pyrido[3,4-d]pyrimidin-4(3H)-one]	< 20
C[C@H](Oc1ccc(F)c(Cl)c1)c1nc2c(CNCC3CCN(C)CC3)nccc2c(=O)[nH]1 [Example 220, (S)-2-(1-(3-chloro-4-fluorophenoxy)ethyl)-8-((((1-methylpiperidin-4-yl)methyl)amino)methyl)pyrido[3,4-d]pyrimidin-4(3H)-one]	> 50
CN1CCCC(CNCc2nccc3c(=O)[nH]cnc23)C1 (stereo not drawn) [Example 100, 8-((((1-methylpiperidin-3-yl)methyl)amino)methyl)pyrido[3,4-d]pyrimidin-4(3H)-one]	> 50
O=C(NCc1nccc2c(=O)[nH]c(COc3ccc(F)c(Cl)c3)nc12)C1CCCNC1 (stereo not drawn) [Example 241, N-((2-((3-chloro-4-fluorophenoxy)methyl)-4-oxo-3,4-dihydropyrido[3,4-d]pyrimidin-8-yl)methyl)piperidine-3-carboxamide]	< 20
CN1CCC(CNCc2nccc3c(=O)[nH]c(COCc4cccc(Cl)c4)nc23)CC1 [Example 207, 2-(((3-chlorobenzyl)oxy)methyl)-8-((((1-methylpiperidin-4-yl)methyl)amino)methyl)pyrido[3,4-d]pyrimidin-4(3H)-one]	> 50
O=C(CNCc1nccc2c(=O)[nH]c(COc3ccc(F)c(Cl)c3)nc12)N1CCC(N2CCCC2)CC1 [Example 234, 2-((3-chloro-4-fluorophenoxy)methyl)-8-(((2-oxo-2-(4-(pyrrolidin-1-yl)piperidin-1-yl)ethyl)amino)methyl)pyrido[3,4-d]pyrimidin-4(3H)-one]	> 50
COCCN1CCC(CNCc2nccc3c(=O)[nH]c(COc4ccc(F)c(Cl)c4)nc23)CC1 [Example 189, 2-((3-chloro-4-fluorophenoxy)methyl)-8-((((1-(2-methoxyethyl)piperidin-4-yl)methyl)amino)methyl)pyrido[3,4-d]pyrimidin-4(3H)-one]	> 50
O=c1[nH]c(COc2cccc(CNCCN3CCOCC3)c2)nc2cnccc12 [Example 45, 2-((3-(((2-morpholinoethyl)amino)methyl)phenoxy)methyl)pyrido[3,4-d]pyrimidin-4(3H)-one]	< 20
CCCOC1CCN(Cc2cccc(OCc3nc4cnccc4c(=O)[nH]3)c2)CC1 [Example 43, 2-((3-((4-propoxypiperidin-1-yl)methyl)phenoxy)methyl)pyrido[3,4-d]pyrimidin-4(3H)-one]	20 to 50
CCN1CCC(CNCc2nccc3c(=O)[nH]c(COc4ccc(Cc5ccccc5)cc4)nc23)C1 (stereo not drawn) [Example 142, 2-((4-benzylphenoxy)methyl)-8-((((1-ethylpyrrolidin-3-yl)methyl)amino)methyl)pyrido[3,4-d]pyrimidin-4(3H)-one]	> 50
O=c1[nH]c(COc2ccc(Cc3ccccc3)cc2)nc2c(CNCCN3CCOCC3)nccc12 [Example 157, 2-((4-benzylphenoxy)methyl)-8-(((2-morpholinoethyl)amino)methyl)pyrido[3,4-d]pyrimidin-4(3H)-one]	20 to 50
CC(Oc1ccc(Cc2ccccc2)cc1)c1nc2c(CNCC3CCN(C)CC3)nccc2c(=O)[nH]1 (stereo not drawn) [Example 211, 2-(1-(4-benzylphenoxy)ethyl)-8-((((1-methylpiperidin-4-yl)methyl)amino)methyl)pyrido[3,4-d]pyrimidin-4(3H)-one]	< 20
O=c1[nH]c(COc2ccc(F)c(Cl)c2)nc2c(CNCC3CCN(CCO)CC3)nccc12 [Example 188, 2-((3-chloro-4-fluorophenoxy)methyl)-8-((((1-(2-hydroxyethyl)piperidin-4-yl)methyl)amino)methyl)pyrido[3,4-d]pyrimidin-4(3H)-one]	> 50
CN1CCC(CNCc2nccc3c(=O)[nH]c(C4Cc5ccccc5O4)nc23)CC1 (stereo not drawn) [Example 198, 2-(2,3-dihydrobenzofuran-2-yl)-8-((((1-methylpiperidin-4-yl)methyl)amino)methyl)pyrido[3,4-d]pyrimidin-4(3H)-one]	20 to 50
CNC1CCN(C(=O)CNCc2nccc3c(=O)[nH]c(COc4ccc(F)c(Cl)c4)nc23)C1 (stereo not drawn) [Example 238, 2-((3-chloro-4-fluorophenoxy)methyl)-8-(((2-(3-(methylamino)pyrrolidin-1-yl)-2-oxoethyl)amino)methyl)pyrido[3,4-d]pyrimidin-4(3H)-one]	> 50
